Reference: patent publication US20030028906A1, “Gene control” (priority 1995, published 2003)

Key:
[1] = system: CYP1A1 dioxin-responsive promoter coupled to CAT reporter gene; details: 2.58 kbp mouse CYP1A1 fragment-CAT transgenic mice, cited from earlier work
modified Ah receptor = experiment: Induction of the transgene in DBA mice; format: in vivo, mouse
Description: (§1) In addition to the use of this promoter as a general regulatable system for the expression of transgenes this strategy can be exploited to obtain expression targeted to specific cell types. Thus, for example, when the transgene is incorporated into cells containing a modified hydrocarbon receptor, the inducability of the transgene is modulated. […] In addition, the introduction of an Ah receptor responsive to 3-methylcholanthrene into a specific cell, e.g. through the use of a tissue-specific promoter element, will allow tissue-specific induction of a transgene in this mouse on administration of 3-methylcholanthrene. This strategy exploits the fact that the Ah receptor in DBA mice through mutation is non-responsive to certain classes of agents which induce by this mechanism. […] Therefore, using a combination of different forms of the Ah receptor with different types of inducing agent will allow much more precise regulation of transgene expression in cells.

[2] = system: CYP1A1/β-galactosidase promoter/reporter; experiment: β-galactosidase staining of tissue sections from transgenic mice carrying pAhIR1β-gal after 3-MC induction; details: for β-Galactosidase staining intensity: mice carrying pAHIR1, 3-MC 40 μg/g once a day for 3 days; for induction of lacZ expression in the liver: 9 kb rat CYP1A1 promoter-lacZ transgenic mice, IP 40 mg/kg for 3 days, 40 mg/kg
Description: The protocol described below has been adapted to analyse the β-galactosidase expression from transgenic mice and in this regard determine the activity of the P450 1A1 promoter which is effectively driving the expression of this transgene in response to induction of P450 1A1 by the carcinogenic agent 3-methylcholanthrene. All timings in this protocol are critical.
When performing this technique it is essential to incorporate a positive control into the reaction where a tissue sample which is a known expresser of β-galactosidase is treated in an identical manner to that of the test tissues. […] The positive control used in these experiments was a small intestine sample which was a known high expressor of the detection enzyme.
1) The mouse under test was killed by cervical dislocation and the organs required were removed using a sterile scalpel. A small representative piece of mouse organ was fixed on to moistened cork using commercial adhesive. The tissue sample on the cork was then frozen in liquid nitrogen chilled freezing spray (Histological Supplies LTD) for approximately 30 seconds. The tissue sample was then double wrapped in parafilm, placed in a plastic bag, sealed and snap frozen in liquid nitrogen.
4) The metal chuck was placed in the cryostat holder and turned until the tip of the tissues touched the front of the cutting blade. The cryostat was set to obtain small sections approximately 8 microns thickness. By turning the handle of the cryostat small sections of tissue were obtained. Sections were continually taken until a representative section of tissue was obtained. The antiroll plate was then placed against the blade and a section to be harvested was cut.
9) Slides were produced as described using the cryostat and the tissue was fixed in 0.5% glutaraldehyde (in PBS) for 1 day at 4° C. 10) The tissue was then incubated in PBS +2mM MgCl2+30% sucrose at 4° C. overnight.
13) 2-3 hours in X-gal solution at 37° C. or even overnight.
19) The slides were then mounted in DPX and viewed under a microscope. It was important at this stage that the slides were never permitted to dry out since this will affect the quality of the results. The slides should be continually dipped into the histoclear solution to prevent this occurring while the slides are being prepared.
The expected results from the β-galacotsidase staining assay are areas of pink which uniformly stain the tissue section and small areas of blue in the tissue section which indicate areas where X-gal has been metabolised by the β-galactosidase enzyme.
The inducibility of expression. The pAhIR1βgal transgene in the liver was examined after administration of 3-methylcholanthrene (3-mc). The inducing agent was administered IP at a dosage of 40 mg/kg for 3 days and the animals were sacrificed for expression on day four. The induction in the transgenic animals was controlled by:
a) administration of corn oil to transgenic mice,
b) the administration of 3-methylcholanthrene (3-mc) to non-transgenic littermates.
lacZ expression was also investigated in a number of other tissues. The same procedure for sectioning and staining tissue sections was employed.

β-galactosidase activity = experiment: β-galactosidase staining of tissue sections from non-transgenic controls treated with 3-MC; format: in vivo, mouse
Description: All timings in this protocol are critical.

Ah receptor = experiment: Induction of the transgene in C57 BL6 mice; format: in vivo, mouse
Description: as §1

Cc1ccc2cc3c(ccc4ccccc43)c3c2c1CC3 [3-methylcholanthrene]
increase of hepatic expression levels (CAT reporter) ([1]; liver, versus mock-induction): ≤ 10,000 fold
induction of CAT expression ([1]; spleen, small bowel, kidney and lung): More modest levels of induction
induction of the transgene (modified Ah receptor): not an inducer of the transgene
β-Galactosidase staining intensity ([2]; Adrenal gland): +++
β-Galactosidase staining intensity ([2]; Colon): +
β-Galactosidase staining intensity ([2]; Duodenum): +++
β-Galactosidase staining intensity ([2]; Forestomach): +
β-Galactosidase staining intensity ([2]; Ileum): +++
β-Galactosidase staining intensity ([2]; Jejunum): +++
β-Galactosidase staining intensity ([2]; Kidney): ++
3-mc induced lacZ expression in tissues ([2]; Liver, Kidney, Brain (specific regions), Duodenum, Jejunum, Ileum, Lung, Spleen, Oesophagus, Colon, Pancreas, Adrenal Gland, Ovary): detected
β-Galactosidase staining intensity ([2]; Liver): ++++
β-Galactosidase staining intensity ([2]; Lung): +
β-Galactosidase staining intensity ([2]; Oesophagus): ++
β-Galactosidase staining intensity ([2]; Ovary): +
β-Galactosidase staining intensity ([2]; Pancreas): +
β-Galactosidase staining intensity ([2]; Spleen): ++
β-Galactosidase staining intensity ([2]; Stomach): +
β-Galactosidase staining intensity ([2]; Testes): +
induction of lacZ expression in the liver ([2]; listed as 3-mc): very high
induction of lacZ expression in the liver ([2]; listed as 3-methyl-cholanthene): massive induction
induction of expression in spleen and bowel ([2]; spleen and bowel, 9 kb rat CYP1A1 promoter transgenic mice): substantial induction
β-Galactosidase staining intensity (β-galactosidase activity; Duodenum): +
β-Galactosidase staining intensity (β-galactosidase activity; Ileum): +
β-Galactosidase staining intensity (β-galactosidase activity; Jejunum): +
β-Galactosidase staining intensity (β-galactosidase activity; Kidney): +
induction of the transgene (Ah receptor): an inducer of the transgene

Clc1cc2c(cc1Cl)Oc1cc(Cl)c(Cl)cc1O2 [tetrachlorodibenzodioxin]
induction of the transgene (modified Ah receptor): induction can still be obtained
